The values below come from patent publication USRE48267E1, “Variants of C-type natriuretic peptide” (priority 2009, dated 2020).

Where a SMILES comes first, the peptide text is derived from it. Bridges are numbered along the chain shown (N, C = ends). The star is where a group is joined. Heptanoyl = CCCCCCC(=O)* Bounds are passed on as bounds.

In series [1] the target is Recombinant human NEP (Homo sapiens, UniProt P08473). The experiment in a line: in vitro NEP cleavage assay (disappearance of non-cleaved CNP variant). The note with it: for NEP Cleavage (t1/2, min): 100 uM peptide, 1 ug/mL NEP, 0.1 M Tris pH 7, 37° C., adjusted t1/2, CNP22 normalized to 80 min. Put shortly: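 Recombinant human NEP (1 ug/mL final) incubated with 100 uM CNP variant in 0.1 M Tris, pH 7, at 37° C for various times, then quenched with EDTA (10 mM final) and heat. Samples reduced and analysed by HPLC and mass spectrometry. Half-life derived from loss of intact variant over time.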

In series [2] the target is T1, NPR-B (Mus musculus, UniProt Q6VVW5).
T1 construct: Murine NIH3T3 cells express endogenously the CNP signaling receptor, NPR-B; endogenous in cells; host or cells: NIH3T3
T1 sequence (Q6VVW5 17-1047): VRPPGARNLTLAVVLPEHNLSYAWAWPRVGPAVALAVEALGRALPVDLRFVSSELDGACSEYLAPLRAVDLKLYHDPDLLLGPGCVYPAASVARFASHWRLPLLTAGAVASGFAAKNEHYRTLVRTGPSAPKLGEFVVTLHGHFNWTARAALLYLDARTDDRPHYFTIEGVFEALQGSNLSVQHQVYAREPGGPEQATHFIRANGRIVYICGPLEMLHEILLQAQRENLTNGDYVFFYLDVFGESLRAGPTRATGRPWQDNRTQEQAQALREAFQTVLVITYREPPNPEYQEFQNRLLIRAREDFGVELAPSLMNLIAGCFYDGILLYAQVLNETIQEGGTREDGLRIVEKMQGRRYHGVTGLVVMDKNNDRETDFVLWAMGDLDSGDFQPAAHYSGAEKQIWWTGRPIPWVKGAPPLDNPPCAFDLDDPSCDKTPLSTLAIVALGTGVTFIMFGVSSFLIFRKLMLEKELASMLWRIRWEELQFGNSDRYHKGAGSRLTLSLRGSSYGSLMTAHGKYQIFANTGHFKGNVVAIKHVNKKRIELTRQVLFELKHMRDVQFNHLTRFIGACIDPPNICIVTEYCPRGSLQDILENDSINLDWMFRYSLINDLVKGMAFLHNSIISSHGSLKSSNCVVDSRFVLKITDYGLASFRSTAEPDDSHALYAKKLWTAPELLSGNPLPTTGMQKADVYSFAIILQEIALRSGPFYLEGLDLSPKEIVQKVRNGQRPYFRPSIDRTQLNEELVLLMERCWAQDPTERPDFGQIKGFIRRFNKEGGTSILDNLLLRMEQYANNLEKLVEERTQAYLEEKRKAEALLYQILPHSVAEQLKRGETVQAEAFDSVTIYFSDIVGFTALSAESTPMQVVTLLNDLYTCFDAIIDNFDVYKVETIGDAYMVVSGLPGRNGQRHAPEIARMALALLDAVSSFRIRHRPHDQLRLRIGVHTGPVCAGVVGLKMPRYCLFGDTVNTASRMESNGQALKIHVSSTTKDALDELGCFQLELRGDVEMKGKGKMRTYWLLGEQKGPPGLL
The experiment in a line: stimulation of cGMP production in NIH3T3 cells. The note with it: for cGMP Response rel. to 1 uM CNP22, 10 nM: NIH3T3 cells exposed to 10 nM peptide; for cGMP Response rel. to 1 uM CNP22, 10 nM / cGMP Response rel. to 1 uM CNP22, 1 uM: normalized to cell number and cGMP production in the presence of 1 uM wtCNP22; for cGMP Response rel. to 1 uM CNP22, 1 uM: NIH3T3 cells exposed to 1 uM peptide. It is filed as cell-based, murine. As to the method: To determine the functional activity of CNP variants, the production of cGMP was measured in NIH3T3 cells exposed to the CNP variants. Murine NIH3T3 cells express endogenously the CNP signaling receptor, NPR-B, which shares 98% protein sequence identity with human NPR-B. NIH3T3 cells were cultured in high glucose Dulbecco's Modified Eagle Medium supplemented with 10% fetal calf serum and antibiotics at 37° C. with 5% CO2). Twenty four to 48 hours prior to signaling, cells were passaged to 12-well plates with a density of 2-5×10^5 cells per well at the time of the assay. CNP variants were resuspended in 1 mM HCl to a stock concentration of 1 mg/mL (455 uM for wtCNP22) and subsequently diluted to a 30 uM working stock solution with phosphate-buffered saline (PBS). Ten-fold serial dilutions were prepared in phosphate-buffered saline. Culture medium was removed from the cells and replaced with 0.4 mL PBS/Dulbecco's modified Eagle medium (50/50, v/v) containing 0.75 mM isobutylmethylxanine. Plates were incubated at 37° C., 5% CO2 for 15 minutes before addition of 0.2 mL CNP variant in PBS and continued incubation at 37° C. for 15 minutes. Reactions were stopped by the addition of 0.2 mL lysis buffer supplied with the CatchPoint cGMP assay kit (Molecular Devices), and cGMP production was determined with the CatchPoint cGMP Assay (Molecular Devices). All stimulation experiments were performed in duplicate.
Tables 1-4 summarize the ability of CNP variants having backbone or side chain modifications, amino acid substitutions, N-terminal amino acid extensions, and/or N-terminal PEGylation, respectively, to stimulate cGMP production in NIH3T3 cells. In all four tables, the values for cGMP production in NIH3T3 cells exposed to 10 nM or 1 uM CNP variant are normalized to cell number and cGMP production in the presence of 1 uM wtCNP22.

Chain of Recombinant human NEP (P08473 whole entry): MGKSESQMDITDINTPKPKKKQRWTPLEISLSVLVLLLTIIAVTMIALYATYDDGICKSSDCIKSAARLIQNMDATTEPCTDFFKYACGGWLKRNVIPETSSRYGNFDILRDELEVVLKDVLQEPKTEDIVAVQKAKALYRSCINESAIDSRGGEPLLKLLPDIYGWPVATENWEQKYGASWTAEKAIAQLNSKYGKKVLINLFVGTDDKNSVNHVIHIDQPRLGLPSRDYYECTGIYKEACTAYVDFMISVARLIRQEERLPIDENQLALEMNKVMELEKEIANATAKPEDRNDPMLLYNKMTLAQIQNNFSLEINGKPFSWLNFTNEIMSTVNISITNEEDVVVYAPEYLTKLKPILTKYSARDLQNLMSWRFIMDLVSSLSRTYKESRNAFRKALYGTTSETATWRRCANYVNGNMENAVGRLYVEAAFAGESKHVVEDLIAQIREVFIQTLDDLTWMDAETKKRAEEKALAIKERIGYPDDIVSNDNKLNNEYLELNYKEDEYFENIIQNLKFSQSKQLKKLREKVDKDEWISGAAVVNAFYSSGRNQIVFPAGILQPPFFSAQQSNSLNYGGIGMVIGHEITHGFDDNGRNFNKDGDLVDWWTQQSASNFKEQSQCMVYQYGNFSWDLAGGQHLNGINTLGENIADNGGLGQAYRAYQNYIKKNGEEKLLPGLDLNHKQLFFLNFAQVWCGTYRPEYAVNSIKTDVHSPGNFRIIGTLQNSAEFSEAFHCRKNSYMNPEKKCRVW

With `CC[C@H](C)[C@@H]1NC(=O)[C@H](CCCNC(=N)N)NC(=O)[C@H](CC(=O)O)NC(=O)[C@H](CC(C)C)NC(=O)[C@H](CCCCN)NC(=O)[C@H](CC(C)C)NC(=O)CNC(=O)[C@H](Cc2ccccc2)NC(=O)[C@@H](NC(=O)CNC(=O)[C@H](CCCNC(=N)N)NC(=O)[C@H](CO)NC(=O)[C@H](CC(C)C)NC(=O)CN)CSSC[C@@H](C(=O)O)NC(=O)CNC(=O)[C@H](CC(C)C)NC(=O)CNC(=O)[C@H](CO)NC(=O)[C@H](CCSC)NC(=O)[C@H](CO)NC(=O)[C@H](CO)NC1=O` [Analog BK, CNP22, K4R, G15S] (H-GLSRGCFGLKLDRISSMSGLGC-OH; disulfide 6-22; N-terminus and C-terminus assumed), in series [1], the “resistance to NEP cleavage (in words)” value was “greatest resistance to NEP cleavage” and the “NEP Cleavage (t1/2, min)” value is given as at least 160 min. Moreover, in series [2], the “cGMP Response rel. to 1 uM CNP22, 10 nM” value is 13 ± 1 and the “cGMP Response rel. to 1 uM CNP22, 1 uM” value worked out at 71 ± 11.

As to `CC[C@H](C)[C@@H]1NC(=O)[C@H](CCCNC(=N)N)NC(=O)[C@H](CC(=O)O)NC(=O)[C@H](CC(C)C)N(C)C(=O)[C@H](CCCCN)NC(=O)[C@H](CC(C)C)N(C)C(=O)CNC(=O)[C@H](Cc2ccccc2)NC(=O)[C@@H](NC(=O)CNC(=O)[C@H](CCCCN)NC(=O)[C@H](CO)NC(=O)[C@H](CC(C)C)NC(=O)CN)CSSC[C@@H](C(=O)O)NC(=O)CNC(=O)[C@H](CC(C)C)N(C)C(=O)CNC(=O)[C@H](CO)NC(=O)[C@H](CCSC)NC(=O)[C@H](CO)NC(=O)CNC1=O` [Analog L, CNP22, N-methyl-L9, N-methyl-L11, N-methyl-L20], the “resistance to NEP cleavage (in words)” value in series [1] is given as “substantially shorter half-life”. Also, in series [2], the “cGMP Response rel. to 1 uM CNP22, 10 nM” value is given as 18 and the “cGMP Response rel. to 1 uM CNP22, 1 uM” value is reported as 10.

As to `CCCCCCC(=O)N[C@@H](CCC(=O)O)C(=O)N[C@@H](CC(C)C)C(=O)N[C@@H](CO)C(=O)N[C@@H](CCCCN)C(=O)NCC(=O)N[C@H]1CSSC[C@@H](C(=O)O)NC(=O)CNC(=O)[C@H](CC(C)C)NC(=O)CNC(=O)[C@H](CO)NC(=O)[C@H](CCSC)NC(=O)[C@H](CO)NC(=O)CNC(=O)[C@H]([C@@H](C)CC)NC(=O)[C@H](CCCNC(=N)N)NC(=O)[C@H](CC(=O)O)NC(=O)[C@H](CC(C)C)NC(=O)[C@H](CCCCN)NC(=O)[C@H](CC(C)C)NC(=O)CNC(=O)[C@H](Cc2ccccc2)NC1=O` [Analog BB, Heptanoic acid (N-term.)-CNP22, G1E] (Heptanoyl-ELSKGCFGLKLDRIGSMSGLGC-OH; disulfide 6-22), the “NEP Cleavage (t1/2, min)” value in series [1] fell in the range of 45 to 65 min. Moreover, the “NPR-B stimulation activity / cGMP production compared with wtCNP22 (in words)” value in series [2] (NIH3T3 cells) is recorded as “comparable NPR-B stimulation activity as wtCNP22”. For the same compound, in series [2], the “cGMP Response rel. to 1 uM CNP22, 10 nM” value was determined as 32 ± 4 and the “cGMP Response rel. to 1 uM CNP22, 1 uM” value amounted to 84 ± 19.

In the case of `CC[C@H](C)[C@@H]1NC(=O)[C@H](CCCNC(=N)N)NC(=O)[C@H](CC(=O)O)NC(=O)[C@H](CC(C)C)NC(=O)[C@H](CCCCN)NC(=O)[C@H](CC(C)C)NC(=O)CNC(=O)[C@H](Cc2ccccc2)NC(=O)[C@@H](NC(=O)CNC(=O)[C@H](CCCNC(=N)N)NC(=O)[C@H](CO)NC(=O)[C@H](CC(C)C)NC(=O)CN)CSSC[C@@H](C(=O)O)NC(=O)CNC(=O)[C@H](CC(C)C)NC(=O)CNC(=O)[C@H](CO)NC(=O)[C@H](CCSC)NC(=O)[C@H](CO)NC(=O)[C@H](CC(N)=O)NC1=O` [Analog BJ, CNP22, K4R, G15N] (H-GLSRGCFGLKLDRINSMSGLGC-OH; disulfide 6-22; N-terminus and C-terminus assumed), the “resistance to NEP cleavage (in words)” value in series [1] is recorded as “greatest resistance to NEP cleavage”. Also, in series [2], the “cGMP Response rel. to 1 uM CNP22, 10 nM” value stood at 4 and the “cGMP Response rel. to 1 uM CNP22, 1 uM” value is given as 41.
